Series [1] has as its system Rhopalosiphum padi (cereal aphid). The series is described as follows: Activity against Rhopalosiphum padi (cereal aphid) on wheat, spray with safener cloquintocet, 6 days after application (Example B1). Particulars: 144 h. In kind it is in vivo. As for the experimental part:
One replicate consisted of 4 wheat plants per pot. […] 9 days after seeding all wheat plants (10replicates) were sprayed with respective test solutions. […] 6 days after application aphid mortality and phytotoxicity were evaluated. […] Additionally the average plant height per replicate was measured.

In series [2] the test system is Nilaparvata lugens (brown plant hopper, BPH). The series is described as follows: Activity against Nilaparvata lugens (brown plant hopper, BPH) on rice, spray with safeners, 7 d after application (Example B2). In kind it is in vivo. The following applies: 168 h. As for the experimental part: Eight replicates (pots with rice plants) were sprayed with respective test solutions. Test solutions contained the formulated test compound and the safener cloquintocet and N-(2-methoxybenzoyl)-4-[(methylaminocarbonyl)amino]-benzenesulfonamide at different ratios. 4 pots were infested with plant hopper nymphs right after application. 7d after application BPH mortality and plant safety were evaluated. […] Assessment on plant safety was done by measuring the average plant height per replicate.

Where two headings read alike, the source gives them in different places.

Regarding `CCOC(=O)OC1=C(c2cc(C)ccc2C)C(=O)N(C)C12CCN(OC)CC2` [Compound P1.1], the melting point lay within 96 to 110 °C.
Same read-out and setting: with `CCOC(=O)OC1=C(c2c(C)cc(C)cc2C)C(=O)N(CC)C12CCN(OC)CC2` [Compound P1.8] the figure was 101 to 103 °C; with `CCOC(=O)OC1=C(c2cc(C)c(C)cc2Br)C(=O)N(C)C12CCN(OC)CC2` [Compound P1.20], 158 to 159 °C; with `CCOC(=O)OC1=C(c2cc(C)c(C)cc2Cl)C(=O)N(C)C12CCN(OC)CC2` [Compound P1.22], 149 to 150 °C.
`CCOC(=O)OC1=C(c2c(C)cc(Cl)cc2C)C(=O)N(C)C12CCN(OC)CC2` [Compound P1.29]: the mortality at 25 ppm in series [1] (read-out: Efficacy (% mortality) against cereal aphids (Rhopalosiphum padi), test compound 25 ppm, adjuvant Mero 0.1% v/v, ratio AI:safener cell blank (no safener), wheat, 6 days after application, Abbott's formula) is 97%; in series [1] (read-out: Efficacy (% mortality) against cereal aphids (Rhopalosiphum padi), test compound 25 ppm, adjuvant Mero 0.1% v/v, safener cloquintocet, ratio AI:safener 1:1, wheat, 6 days after application, Abbott's formula), 96.6%; in series [1] (read-out: Efficacy (% mortality) against cereal aphids (Rhopalosiphum padi), test compound 25 ppm, adjuvant Mero 0.1% v/v, safener cloquintocet, ratio AI:safener 1:2, wheat, 6 days after application, Abbott's formula), 96.9%; in series [2] (read-out: % mortality, corr., 25 ppm AI, Cloquintocet, ratio AI:safener 1.9:1, 7 d after application), 100%; in series [2] (read-out: % mortality, corr., 25 ppm AI, Safener 2, ratio AI:safener 1.9:1, 7 d after application), 95%. In addition, the mortality at 12.5 ppm in series [2] (read-out: % mortality, corr., 12.5 ppm AI, Cloquintocet, ratio AI:safener 0.9:1, 7 d after application) turned out to be 98%; in series [2] (read-out: % mortality, corr., 12.5 ppm AI, Safener 2, ratio AI:safener 0.9:1, 7 d after application) it was 65%. Also, the mortality at 50 ppm in series [2] (read-out: % mortality, corr., 50 ppm AI, Safener 2, ratio AI:safener 1.25:1, 7 d after application) is 100%. Also, the mortality at 100 ppm in series [2] (read-out: % mortality, corr., 100 ppm AI, Safener 2, ratio AI:safener 7.5:1, 7 d after application) is 100%. In addition, the mortality at 200 ppm in series [2] (read-out: % mortality, corr., 200 ppm AI, Safener 2, ratio AI:safener 15:1, 7 d after application) came out at 100%.
On to `COCON1C(=O)C(c2cc(C)ccc2C)=C(OC(=O)CC(C)(C)C)C12CCN(OC)CC2` [Compound P1ii.5], for which the melting point fell in the range of 93 to 95 °C.
Same read-out and setting: with `COCON1C(=O)C(c2cc(C)ccc2C)=C(OC)C12CCN(OC)CC2` [Compound P1ii.31] the figure was 91 to 93 °C; with `CCOC(=O)OC1=C(c2c(F)ccc(C)c2Cl)C(=O)N(OCOC)C12CCN(OC)CC2` [Compound P1ii.61], 116 to 119 °C; with `CCOC(=O)OC1=C(c2c(C)cc(Cl)cc2C)C(=O)N(OC)C12CCN(OC)CC2` [Compound P1ii.114], 122 to 125 °C.
The same measure, in the same setting: with `CON1CCC2(CC1)C(O)=C(c1cc(C)ccc1C)C(=O)N2C` [Compound P2.1] the figure was 121 to 123 °C; with `CON1CCC2(CC1)C(O)=C(c1c(C)cc(C)cc1C)C(=O)N2CC1CC1` [Compound P2.8, 1-Cyclopropylmethyl-4-hydroxy-8-methoxy-3-(2,4,6-trimethyl-phenyl)-1,8-diaza-spiro[4.5]dec-3-en-2-one], 223 to 225 °C; with `CCN1C(=O)C(c2c(C)cc(C)cc2C)=C(O)C12CCN(OC)CC2` [Compound P2.11], 218 to 221 °C.
Same read-out and setting: with `CON1CCC2(CC1)C(O)=C(c1cc(C)c(C)cc1Br)C(=O)N2C` [Compound P2.23] the figure was 191 to 193 °C; with `CON1CCC2(CC1)C(O)=C(c1cc(C)c(C)cc1C)C(=O)N2C` [Compound P2.25], 183 to 186 °C.
As to `CON1CCC2(CC1)C(O)=C(c1cc(C)c(C)cc1Cl)C(=O)N2C` [Compound P2.26, 3-(2-Chloro-4,5-dimethyl-phenyl)-4-hydroxy-8-methoxy-1-methyl-1,8-diaza-spiro[4.5]dec-3-en-2-one], the melting point was in the range of 191 to 192 °C.
On the same count and under the same terms, with `CON1CCC2(CC1)C(O)=C(c1cc(Br)c(C)cc1C)C(=O)N2C` [Compound P2.28] the figure was 182 to 183 °C; with `COCON1C(=O)C(c2c(C)cc(-c3ccc(Cl)cc3)cc2C)=C(O)C12CCN(OC)CC2` [Compound P2ii.15, 3-(4′-Chloro-3,5-dimethyl-biphenyl-4-yl)-4-hydroxy-8-methoxy-1-methoxymethoxy-1,8-diaza-spiro[4.5]dec-3-en-2-one], 128 °C (dec.); with `CON1CCC2(CC1)C(O)=C(c1c(C)cc(C)cc1C)C(=O)N2OCCOC1CCCCO1` (stereo not shown) [Compound P2ii.22], 135 to 137 °C.
For `COCON1C(=O)C(c2c(F)ccc(C)c2Cl)=C(O)C12CCN(OC)CC2` [Compound P2ii.60], the melting point fell in the range of 155 to 158 °C.
The molecule `COCCON1C(=O)C(c2cc(Br)c(C)cc2C)=C(O)C12CCN(OC)CC2` [Compound P2ii.73] showed a melting point of 63 to 64 °C.
The same measure, in the same setting: with `CON1CCC2(CC1)C(O)=C(c1cc(Br)c(C)cc1C)C(=O)N2OC` [Compound P2ii.75] the figure was 86 to 87 °C; with `COCCON1C(=O)C(c2cc(Br)c(F)cc2C)=C(O)C12CCN(OC)CC2` [Compound P2ii.87], 71 to 74 °C.
On the same count and under the same terms, with `COCON1C(=O)C(c2cc(Br)c(F)cc2C)=C(O)C12CCN(OC)CC2` [Compound P2ii.89] the figure was 64 to 67 °C; with `CON1CCC2(CC1)C(O)=C(c1c(C)cc(C)cc1C)C(=O)N2OCC1CCCCC1` [Compound P2ii.96], 169 to 172 °C.
In turn, `COCCON1C(=O)C(c2c(C)cc(Cl)cc2C)=C(O)C12CCN(OC)CC2` [Compound P2ii.101] displayed a melting point of 161 to 164 °C.
The same measure, in the same setting: for `CON1CCC2(CC1)C(O)=C(c1c(C)cc(Cl)cc1C)C(=O)N2OC` [Compound P2ii.102] the value was 88 to 92 °C; for `COCON1C(=O)C(c2c(C)cc(Cl)cc2C)=C(O)C12CCN(OC)CC2` [Compound P2ii.104], 176 to 178 °C.
The same measure, in the same setting: with `CON1CCC2(CC1)C(O)=C(c1c(C)cc(Cl)cc1C)C(=O)N2OC1CCCO1` (stereo not shown) [Compound P2ii.105] the figure was 137 to 139 °C.

One may read the melting point as the temperature of the solid-liquid transition.

The values are drawn from US9462808B2, “Pesticidal compositions” (Syngenta Participants AG, priority 2010, dated 2016).
